Experimental findings from article PMC7857480 (The Journal of Biological Chemistry, 2020) are described below.

The experiment has as its target FigC (Francisella tularensis, UniProt Q15EG8). As to conditions: covalent (Schiff base with K63); active site at dimer interface.

Chain of FigC (Q15EG8 1-417): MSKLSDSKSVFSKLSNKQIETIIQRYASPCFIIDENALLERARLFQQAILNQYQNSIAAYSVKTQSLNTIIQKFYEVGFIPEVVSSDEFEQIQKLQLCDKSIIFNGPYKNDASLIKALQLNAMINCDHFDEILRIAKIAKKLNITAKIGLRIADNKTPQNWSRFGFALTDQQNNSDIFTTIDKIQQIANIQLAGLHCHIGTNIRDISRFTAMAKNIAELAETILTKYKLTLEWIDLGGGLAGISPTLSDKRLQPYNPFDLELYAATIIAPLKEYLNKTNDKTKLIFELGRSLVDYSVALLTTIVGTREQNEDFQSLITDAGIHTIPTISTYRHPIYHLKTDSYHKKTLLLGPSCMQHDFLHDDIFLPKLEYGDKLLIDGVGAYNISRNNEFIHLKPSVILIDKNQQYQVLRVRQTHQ

`Cc1ncc(COP(=O)(O)O)c(C=O)c1O` [PLP]: the “X-ray crystal structure, 2.1 Å, SeMet SAD” value was “all four active sites showed good density for the cofactor PLP”.
